# Experimental data from ChEMBL document CHEMBL4308841, “Synthesis, in vitro antiproliferative activity, and kinase inhibitory effects of pyrazole-containing diarylureas and diarylamides” (Eur J Med Chem, 2018).
# Legend:
# RPMI-8226 = experiment: Growth inhibition of human RPMI8226 cells incubated for 48 hrs by sulforhodamine B assay; format: functional, cell-based; conditions: RPMI-8226, 48 h
# NCI-H522 = experiment: Growth inhibition of human NCI-H522 cells incubated for 48 hrs by sulforhodamine B assay; format: functional, cell-based; conditions: NCI-H522, 48 h
# Malme-3M = experiment: Growth inhibition of human MALME-3M cells incubated for 48 hrs by sulforhodamine B assay; format: functional, cell-based
# OVCAR-8 = experiment: Growth inhibition of human OVCAR8 cells incubated for 48 hrs by sulforhodamine B assay; format: functional, cell-based; conditions: OVCAR-8, 48 h
# NCI/ADR-RES [1] = experiment: Growth inhibition of human NCI/ADR-RES cells incubated for 48 hrs by sulforhodamine B assay; format: functional, cell-based
# NCI-H460 [2] = experiment: Growth inhibition of human NCI-H460 cells assessed as cell growth at 0.01 uM incubated for 48 hrs by sulforhodamine B assay relative to control; format: functional; conditions: NCI-H460, 48 h, read-out: Activity
# HCT-15 [3] = experiment: Growth inhibition of human HCT15 cells assessed as cell growth at 0.01 uM incubated for 48 hrs by sulforhodamine B assay relative to control; format: functional; conditions: HCT-15, 48 h, read-out: Activity
# U-251 [4] = experiment: Growth inhibition of human U251 cells assessed as cell growth at 0.01 uM incubated for 48 hrs by sulforhodamine B assay relative to control; format: functional; conditions: U-251, 48 h, read-out: Activity
# SK-MEL-28 = experiment: Growth inhibition of human SK-MEL-28 cells assessed as cell growth at 0.01 uM incubated for 48 hrs by sulforhodamine B assay relative to control; format: functional; conditions: SK-MEL-28, 48 h, read-out: Activity
# NCI/ADR-RES [5] = experiment: Growth inhibition of human NCI/ADR-RES cells assessed as cell growth at 0.01 uM incubated for 48 hrs by sulforhodamine B assay relative to control; format: functional; conditions: read-out: Activity
# CAKI-1 [6] = experiment: Growth inhibition of human Caki1 cells assessed as cell growth at 0.01 uM incubated for 48 hrs by sulforhodamine B assay relative to control; format: functional; conditions: CAKI-1, 48 h, read-out: Activity
# UO-31 = experiment: Growth inhibition of human UO31 cells assessed as cell growth at 0.01 uM incubated for 48 hrs by sulforhodamine B assay relative to control; format: functional; conditions: UO-31, 48 h, read-out: Activity
# Hs-578T = experiment: Growth inhibition of human Hs578T cells assessed as cell growth at 0.01 uM incubated for 48 hrs by sulforhodamine B assay relative to control; format: functional; conditions: read-out: Activity
# MOLT-4 = experiment: Growth inhibition of human MOLT4 cells assessed as cell growth at 0.1 uM incubated for 48 hrs by sulforhodamine B assay relative to control; format: functional; conditions: MOLT-4, 48 h, read-out: Activity
# SR = experiment: Growth inhibition of human SR cells assessed as cell growth at 0.1 uM incubated for 48 hrs by sulforhodamine B assay relative to control; format: functional; conditions: read-out: Activity
# SF-539 = experiment: Growth inhibition of human SF539 cells assessed as cell growth at 0.1 uM incubated for 48 hrs by sulforhodamine B assay relative to control; format: functional; conditions: SF-539, 48 h, read-out: Activity
# MDA-MB-435 = experiment: Growth inhibition of human MDA-MB-435 cells assessed as cell growth at 0.1 uM incubated for 48 hrs by sulforhodamine B assay relative to control; format: functional; conditions: MDA-MB-435, 48 h, read-out: Activity
# A498 = experiment: Growth inhibition of human A498 cells assessed as cell growth at 0.1 uM incubated for 48 hrs by sulforhodamine B assay relative to control; format: functional; conditions: A498, 48 h, read-out: Activity
# NCI-H460 [7] = experiment: Growth inhibition of human NCI-H460 cells assessed as cell growth at 1 uM incubated for 48 hrs by sulforhodamine B assay relative to control; format: functional; conditions: NCI-H460, 48 h, read-out: Activity
# HCT-116 [8] = experiment: Growth inhibition of human HCT116 cells assessed as cell growth at 1 uM incubated for 48 hrs by sulforhodamine B assay relative to control; format: functional; conditions: HCT-116, 48 h, read-out: Activity
# HCT-15 [9] = experiment: Growth inhibition of human HCT15 cells assessed as cell growth at 1 uM incubated for 48 hrs by sulforhodamine B assay relative to control; format: functional; conditions: HCT-15, 48 h, read-out: Activity
# SW-620 [10] = experiment: Growth inhibition of human SW620 cells assessed as cell growth at 1 uM incubated for 48 hrs by sulforhodamine B assay relative to control; format: functional; conditions: SW-620, 48 h, read-out: Activity
# U-251 [11] = experiment: Growth inhibition of human U251 cells assessed as cell growth at 1 uM incubated for 48 hrs by sulforhodamine B assay relative to control; format: functional; conditions: U-251, 48 h, read-out: Activity
# M14 = experiment: Growth inhibition of human M14 cells assessed as cell growth at 1 uM incubated for 48 hrs by sulforhodamine B assay relative to control; format: functional; conditions: M14, 48 h, read-out: Activity
# BT-549 [12] = experiment: Growth inhibition of human BT549 cells assessed as cell growth at 1 uM incubated for 48 hrs by sulforhodamine B assay relative to control; format: functional; conditions: BT-549, 48 h, read-out: Activity
# HCT-116 [13] = experiment: Growth inhibition of human HCT116 cells assessed as cell growth at 100 uM incubated for 48 hrs by sulforhodamine B assay relative to control; format: functional; conditions: HCT-116, 48 h, read-out: Activity
# KM12 = experiment: Growth inhibition of human KM12 cells assessed as cell growth at 100 uM incubated for 48 hrs by sulforhodamine B assay relative to control; format: functional; conditions: KM12, 48 h, read-out: Activity
# SW-620 [14] = experiment: Growth inhibition of human SW620 cells assessed as cell growth at 100 uM incubated for 48 hrs by sulforhodamine B assay relative to control; format: functional; conditions: SW-620, 48 h, read-out: Activity
# ACHN = experiment: Growth inhibition of human ACHN cells assessed as cell growth at 100 uM incubated for 48 hrs by sulforhodamine B assay relative to control; format: functional; conditions: read-out: Activity
# CAKI-1 [15] = experiment: Growth inhibition of human Caki1 cells assessed as cell growth at 100 uM incubated for 48 hrs by sulforhodamine B assay relative to control; format: functional; conditions: CAKI-1, 48 h, read-out: Activity
# BT-549 [16] = experiment: Growth inhibition of human BT549 cells assessed as cell growth at 100 uM incubated for 48 hrs by sulforhodamine B assay relative to control; format: functional; conditions: BT-549, 48 h, read-out: Activity
# T47D = experiment: Growth inhibition of human T47D cells assessed as cell growth at 100 uM incubated for 48 hrs by sulforhodamine B assay relative to control; format: functional; conditions: read-out: Activity
# [17] = read-out: LC50 (the source's name)
# [18] = read-out: pLC50 (the source's name) (converted)
smiles,measurement,setting,value
COc1cc(Cl)cc(-c2nn(-c3cccc(NC(=O)c4cccc(C(F)(F)F)c4)c3)cc2-c2ccncc2)c1,IC50,RPMI-8226,3.13 µM
same,GI50,RPMI-8226; read-out: GI50,3.12 µM
same,CC50,RPMI-8226; [17],> 100 µM
same,TGI,RPMI-8226; read-out: TGI,> 100 µM
same,GI50,RPMI-8226; read-out: pGI50 (converted),3.16 µM
same,CC50,RPMI-8226; [18],> 100 µM
same,TGI,RPMI-8226; read-out: pTGI (converted),> 100 µM
same,GI50,NCI-H522; read-out: GI50,1.9 µM
same,CC50,NCI-H522; [17],> 100 µM
same,TGI,NCI-H522; read-out: TGI,> 100 µM
same,GI50,NCI-H522; read-out: pGI50 (converted),2 µM
same,CC50,NCI-H522; [18],> 100 µM
same,TGI,NCI-H522; read-out: pTGI (converted),> 100 µM
same,GI50,Malme-3M; read-out: GI50,> 100 µM
same,CC50,Malme-3M; [17],> 100 µM
same,TGI,Malme-3M; read-out: TGI,> 100 µM
same,GI50,Malme-3M; read-out: pGI50 (converted),> 100 µM
same,CC50,Malme-3M; [18],> 100 µM
same,TGI,Malme-3M; read-out: pTGI (converted),> 100 µM
same,GI50,OVCAR-8; read-out: GI50,5.58 µM
same,CC50,OVCAR-8; [17],> 100 µM
same,TGI,OVCAR-8; read-out: TGI,> 100 µM
same,GI50,OVCAR-8; read-out: pGI50 (converted),6.92 µM
same,CC50,OVCAR-8; [18],> 100 µM
same,TGI,OVCAR-8; read-out: pTGI (converted),> 100 µM
same,GI50,NCI/ADR-RES [1]; read-out: GI50,5.38 µM
same,CC50,NCI/ADR-RES [1]; [17],> 100 µM
same,TGI,NCI/ADR-RES [1]; read-out: TGI,> 100 µM
same,GI50,NCI/ADR-RES [1]; read-out: pGI50 (converted),5.37 µM
same,CC50,NCI/ADR-RES [1]; [18],> 100 µM
same,TGI,NCI/ADR-RES [1]; read-out: pTGI (converted),> 100 µM
same,growth at 0.01 µM,NCI-H460 [2],101%
same,growth at 0.01 µM,HCT-15 [3],56%
same,growth at 0.01 µM,U-251 [4],94%
same,growth at 0.01 µM,SK-MEL-28,105%
same,growth at 0.01 µM,NCI/ADR-RES [5],103%
same,growth at 0.01 µM,CAKI-1 [6],95%
same,growth at 0.01 µM,UO-31,58%
same,growth at 0.01 µM,Hs-578T,97%
same,growth at 0.1 µM,MOLT-4,95%
same,growth at 0.1 µM,SR,54%
same,growth at 0.1 µM,SF-539,100%
same,growth at 0.1 µM,MDA-MB-435,95%
same,growth at 0.1 µM,A498,52%
same,growth at 1 µM,NCI-H460 [7],93%
same,growth at 1 µM,HCT-116 [8],71%
same,growth at 1 µM,HCT-15 [9],71%
same,growth at 1 µM,SW-620 [10],107%
same,growth at 1 µM,U-251 [11],65%
same,growth at 1 µM,M14,83%
same,growth at 1 µM,BT-549 [12],94%
same,growth at 100 µM,HCT-116 [13],22%
same,growth at 100 µM,KM12,28%
same,growth at 100 µM,SW-620 [14],57%
same,growth at 100 µM,ACHN,40%
same,growth at 100 µM,CAKI-1 [15],21%
same,growth at 100 µM,BT-549 [16],54%
same,growth at 100 µM,T47D,15%
O=C(Nc1cccc(-n2cc(-c3ccncc3)c(-c3cc(O)cc(Cl)c3)n2)c1)c1cc(C(F)(F)F)cc(C(F)(F)F)c1,IC50,RPMI-8226,2.5 µM
same,GI50,RPMI-8226; read-out: GI50,2.5 µM
same,CC50,RPMI-8226; [17],> 100 µM
same,TGI,RPMI-8226; read-out: TGI,12.7 µM
same,GI50,RPMI-8226; read-out: pGI50 (converted),2.51 µM
same,CC50,RPMI-8226; [18],> 100 µM
same,TGI,RPMI-8226; read-out: pTGI (converted),12.6 µM
same,GI50,NCI-H522; read-out: GI50,1.5 µM
same,CC50,NCI-H522; [17],> 100 µM
same,TGI,NCI-H522; read-out: TGI,83.7 µM
same,GI50,NCI-H522; read-out: pGI50 (converted),1.58 µM
same,CC50,NCI-H522; [18],> 100 µM
same,TGI,NCI-H522; read-out: pTGI (converted),8.32 µM
same,GI50,Malme-3M; read-out: GI50,3.59 µM
same,CC50,Malme-3M; [17],> 100 µM
same,TGI,Malme-3M; read-out: TGI,94.4 µM
same,GI50,Malme-3M; read-out: pGI50 (converted),3.72 µM
same,CC50,Malme-3M; [18],> 100 µM
same,TGI,Malme-3M; read-out: pTGI (converted),95.5 µM
same,GI50,OVCAR-8; read-out: GI50,3.58 µM
same,CC50,OVCAR-8; [17],> 100 µM
same,TGI,OVCAR-8; read-out: TGI,> 100 µM
same,GI50,OVCAR-8; read-out: pGI50 (converted),3.55 µM
same,CC50,OVCAR-8; [18],> 100 µM
same,TGI,OVCAR-8; read-out: pTGI (converted),> 100 µM
same,GI50,NCI/ADR-RES [1]; read-out: GI50,4.58 µM
same,CC50,NCI/ADR-RES [1]; [17],> 100 µM
same,TGI,NCI/ADR-RES [1]; read-out: TGI,> 100 µM
same,GI50,NCI/ADR-RES [1]; read-out: pGI50 (converted),4.57 µM
same,CC50,NCI/ADR-RES [1]; [18],> 100 µM
same,TGI,NCI/ADR-RES [1]; read-out: pTGI (converted),> 100 µM
same,growth at 0.01 µM,NCI-H460 [2],101%
same,growth at 0.01 µM,HCT-15 [3],96%
same,growth at 0.01 µM,U-251 [4],96%
same,growth at 0.01 µM,SK-MEL-28,99%
same,growth at 0.01 µM,NCI/ADR-RES [5],101%
same,growth at 0.01 µM,CAKI-1 [6],97%
same,growth at 0.01 µM,UO-31,57%
same,growth at 0.01 µM,Hs-578T,93%
same,growth at 0.1 µM,MOLT-4,89%
same,growth at 0.1 µM,SR,94%
same,growth at 0.1 µM,SF-539,91%
same,growth at 0.1 µM,MDA-MB-435,95%
same,growth at 0.1 µM,A498,87%
same,growth at 1 µM,NCI-H460 [7],92%
same,growth at 1 µM,HCT-116 [8],59%
same,growth at 1 µM,HCT-15 [9],79%
same,growth at 1 µM,SW-620 [10],100%
same,growth at 1 µM,U-251 [11],53%
same,growth at 1 µM,M14,85%
same,growth at 1 µM,BT-549 [12],101%
same,growth at 100 µM,HCT-116 [13],5%
same,growth at 100 µM,SW-620 [14],13%
same,growth at 100 µM,ACHN,19%
same,growth at 100 µM,CAKI-1 [15],7%
same,growth at 100 µM,BT-549 [16],-12%
